Measurements reported in PubChem BioAssay (NCI).
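Where inhibition never reached the appropriate level, the endpoint shown equals the highest concentration tested. Otherwise, values were interpolated linearly from a five-concentration, 48-hour dose response in 96-well plates. GI50 is the concentration that inhibits growth by half. The concentration for full growth arrest is given as TGI.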

How the values were obtained:
Assay in all cases: DTP human tumour cell line panel, 48 h
HL-60(TB) leukemia = system: HL-60(TB) leukemia
786-0 renal = system: 786-0 renal
M14 melanoma = system: M14 melanoma
SF-539 CNS = system: SF-539 CNS
IGROV1 ovarian = system: IGROV1 ovarian
HCT-116 colon = system: HCT-116 colon
SK-MEL-5 melanoma = system: SK-MEL-5 melanoma
SF-268 CNS = system: SF-268 CNS
UACC-62 melanoma = system: UACC-62 melanoma
HOP-92 NSCLC = system: HOP-92 NSCLC
ACHN renal = system: ACHN renal
SN12C renal = system: SN12C renal
NCI-H460 lung = system: NCI-H460 lung
RPMI-8226 leukemia = system: RPMI-8226 leukemia
MDA-MB-231 breast = system: MDA-MB-231 breast
A549 NSCLC = system: A549 NSCLC
BT-549 breast = system: BT-549 breast
OVCAR-4 ovarian = system: OVCAR-4 ovarian
TK-10 renal = system: TK-10 renal
SF-295 CNS = system: SF-295 CNS
MDA-MB-435 = system: MDA-MB-435
T-47D breast = system: T-47D breast
SR leukemia = system: SR leukemia
NCI-H522 lung = system: NCI-H522 lung
HCT-15 colon = system: HCT-15 colon
MDA-MB-468 breast = system: MDA-MB-468 breast
OVCAR-8 ovarian = system: OVCAR-8 ovarian
A498 renal = system: A498 renal
MCF7 breast = system: MCF7 breast
SK-MEL-28 melanoma = system: SK-MEL-28 melanoma
UACC-257 melanoma = system: UACC-257 melanoma
DU-145 prostate = system: DU-145 prostate
SW-620 colon = system: SW-620 colon
NCI-H226 lung = system: NCI-H226 lung
MOLT-4 leukemia = system: MOLT-4 leukemia
HS 578T breast = system: HS 578T breast
UO-31 renal = system: UO-31 renal
HOP-62 NSCLC = system: HOP-62 NSCLC
NCI-H23 lung = system: NCI-H23 lung
U251 CNS = system: U251 CNS
LOX IMVI melanoma = system: LOX IMVI melanoma
NCI/ADR-RES ovarian = system: NCI/ADR-RES ovarian
PC-3 prostate = system: PC-3 prostate
CAKI-1 renal = system: CAKI-1 renal
OVCAR-3 ovarian = system: OVCAR-3 ovarian
OVCAR-5 ovarian = system: OVCAR-5 ovarian
SNB-75 CNS = system: SNB-75 CNS
EKVX NSCLC = system: EKVX NSCLC
COLO 205 colon = system: COLO 205 colon
HT29 colon = system: HT29 colon
K-562 leukemia = system: K-562 leukemia
SK-MEL-2 melanoma = system: SK-MEL-2 melanoma
MALME-3M melanoma = system: MALME-3M melanoma
RXF 393 renal = system: RXF 393 renal
HCC-2998 colon = system: HCC-2998 colon
CCRF-CEM leukemia = system: CCRF-CEM leukemia
SNB-19 CNS = system: SNB-19 CNS
SK-OV-3 ovarian = system: SK-OV-3 ovarian
KM12 colon = system: KM12 colon

SMILES: O=C1NC(=NC23CC4CC(CC(C4)C2)C3)N/C1=C\c1ccc2ncccc2n1
- GI50 (HL-60(TB) leukemia): 0.565 µM
- TGI (HL-60(TB) leukemia): 3.67 µM
- GI50 (786-0 renal): 0.371 µM
- TGI (786-0 renal): 2.35 µM
- GI50 (M14 melanoma): 0.352 µM
- TGI (M14 melanoma): 2.93 µM
- GI50 (SF-539 CNS): 0.128 µM
- TGI (SF-539 CNS): 1.11 µM
- GI50 (IGROV1 ovarian): 0.257 µM
- TGI (IGROV1 ovarian): 1.41 µM
- GI50 (HCT-116 colon): 0.25 µM
- TGI (HCT-116 colon): 3.72 µM
- GI50 (SK-MEL-5 melanoma): 0.425 µM
- TGI (SK-MEL-5 melanoma): 1.85 µM
- GI50 (SF-268 CNS): 0.608 µM
- TGI (SF-268 CNS): 5.63 µM
- GI50 (UACC-62 melanoma): 0.226 µM
- TGI (UACC-62 melanoma): 0.739 µM
- GI50 (HOP-92 NSCLC): 0.222 µM
- TGI (HOP-92 NSCLC): 1.76 µM
- GI50 (ACHN renal): 0.305 µM
- TGI (ACHN renal): 1.9 µM
- GI50 (SN12C renal): 0.35 µM
- TGI (SN12C renal): 4.57 µM
- GI50 (NCI-H460 lung): 0.51 µM
- TGI (NCI-H460 lung): 5.28 µM
- GI50 (RPMI-8226 leukemia): 0.316 µM
- TGI (RPMI-8226 leukemia): 1.5 µM
- GI50 (MDA-MB-231 breast): 0.557 µM
- TGI (MDA-MB-231 breast): 4.82 µM
- GI50 (A549 NSCLC): 0.398 µM
- TGI (A549 NSCLC): 5.12 µM
- GI50 (BT-549 breast): 0.163 µM
- TGI (BT-549 breast): 0.687 µM
- GI50 (OVCAR-4 ovarian): 0.451 µM
- TGI (OVCAR-4 ovarian): 3.09 µM
- GI50 (TK-10 renal): 0.328 µM
- TGI (TK-10 renal): 6.57 µM
- GI50 (SF-295 CNS): 0.251 µM
- TGI (SF-295 CNS): 4.59 µM
- GI50 (MDA-MB-435): 0.537 µM
- TGI (MDA-MB-435): 5.14 µM
- GI50 (T-47D breast): 0.238 µM
- TGI (T-47D breast): 5.38 µM
- GI50 (SR leukemia): 0.224 µM
- TGI (SR leukemia): 0.779 µM
- GI50 (NCI-H522 lung): 0.194 µM
- TGI (NCI-H522 lung): 1.13 µM
- GI50 (HCT-15 colon): 0.389 µM
- TGI (HCT-15 colon): 6.88 µM
- GI50 (MDA-MB-468 breast): 0.201 µM
- TGI (MDA-MB-468 breast): 0.781 µM
- GI50 (OVCAR-8 ovarian): 0.632 µM
- TGI (OVCAR-8 ovarian): 5.73 µM
- GI50 (A498 renal): 0.175 µM
- TGI (A498 renal): 0.902 µM
- GI50 (MCF7 breast): 0.367 µM
- TGI (MCF7 breast): 5.84 µM
- GI50 (SK-MEL-28 melanoma): 0.453 µM
- TGI (SK-MEL-28 melanoma): 2.91 µM
- GI50 (UACC-257 melanoma): 0.652 µM
- TGI (UACC-257 melanoma): 5.82 µM
- GI50 (DU-145 prostate): 0.462 µM
- TGI (DU-145 prostate): 7.59 µM
- GI50 (SW-620 colon): 0.425 µM
- TGI (SW-620 colon): 6.42 µM
- GI50 (NCI-H226 lung): 0.597 µM
- TGI (NCI-H226 lung): 5.97 µM
- GI50 (MOLT-4 leukemia): 0.338 µM
- TGI (MOLT-4 leukemia): 2.02 µM
- GI50 (HS 578T breast): 0.222 µM
- TGI (HS 578T breast): 1.23 µM
- GI50 (UO-31 renal): 0.233 µM
- TGI (UO-31 renal): 1.97 µM
- GI50 (HOP-62 NSCLC): 0.514 µM
- TGI (HOP-62 NSCLC): 4.54 µM
- GI50 (NCI-H23 lung): 0.283 µM
- TGI (NCI-H23 lung): 1.08 µM
- GI50 (U251 CNS): 0.555 µM
- TGI (U251 CNS): 11.3 µM
- GI50 (LOX IMVI melanoma): 0.416 µM
- TGI (LOX IMVI melanoma): 4.78 µM
- GI50 (NCI/ADR-RES ovarian): 1.82 µM
- TGI (NCI/ADR-RES ovarian): 7 µM
- GI50 (PC-3 prostate): 0.334 µM
- TGI (PC-3 prostate): 6.23 µM
- GI50 (CAKI-1 renal): 0.234 µM
- TGI (CAKI-1 renal): 1.2 µM
- GI50 (OVCAR-3 ovarian): 0.279 µM
- TGI (OVCAR-3 ovarian): 1.59 µM
- GI50 (OVCAR-5 ovarian): 0.743 µM
- TGI (OVCAR-5 ovarian): 5.43 µM
- GI50 (SNB-75 CNS): 0.0913 µM
- TGI (SNB-75 CNS): 0.755 µM
- GI50 (EKVX NSCLC): 0.321 µM
- TGI (EKVX NSCLC): 2.81 µM
- GI50 (COLO 205 colon): 0.319 µM
- TGI (COLO 205 colon): 2.94 µM
- GI50 (HT29 colon): 0.833 µM
- TGI (HT29 colon): 3.68 µM
- GI50 (K-562 leukemia): 0.546 µM
- TGI (K-562 leukemia): > 33.6 µM
- GI50 (SK-MEL-2 melanoma): 0.202 µM
- TGI (SK-MEL-2 melanoma): 0.545 µM
- GI50 (MALME-3M melanoma): 0.147 µM
- TGI (MALME-3M melanoma): 0.897 µM
- GI50 (RXF 393 renal): 0.239 µM
- TGI (RXF 393 renal): 0.995 µM
- GI50 (HCC-2998 colon): 0.491 µM
- TGI (HCC-2998 colon): 4.45 µM
- GI50 (CCRF-CEM leukemia): 0.299 µM
- TGI (CCRF-CEM leukemia): 3.03 µM
- GI50 (SNB-19 CNS): 0.261 µM
- TGI (SNB-19 CNS): 4.21 µM
- GI50 (SK-OV-3 ovarian): 0.245 µM
- TGI (SK-OV-3 ovarian): 1.4 µM
- GI50 (KM12 colon): 0.683 µM
- TGI (KM12 colon): 9.84 µM
